Data reported in US6824801B2, “Process for producing foods having good keeping qualities and food keeping agents” (Nihon Starch Co., Ltd., priority 2000, dated 2004).
Like-named read-outs stand apart in the source and are kept apart here. Blank lines part the entries; values can stand above or below the molecule they belong to.

Assays:
Bacillus subtillis = assay: Example 11 curry preservability, sensory evaluation test (Table 14); conditions: curry with AF
Protocol: 7 Parts of beef, 57 parts of vegetables (12 parts of potato, 40 parts of onion and 5 parts of carrot), 1 part of a curry powder, 6 parts of fatty oil, 0.2 parts of sodium glutamate, 1 part of starch and 40 parts of a soup were mixed together, and the mixture was heated and cooked at 80° C. for 1 hour. The resulting product was a curry containing a somewhat larger amount of soup and having a low viscosity. The following operations were conducted in a clean bench. The curry was subdivided each in an amount of 95 grams into ten plugged vessels previously sterilized. The ten vessels were divided into two groups each consisting of five vessels. A 30% solution of AF subjected to an aseptic filtration was added in an amount of 5 g into each of the vessels in one of the groups. Then, 2×10 ^5 nutritious cells of Bacillus subtillis incubated previously were inoculated into the group, and was mixed uniformly. Five grams of a 30% solution of AF subjected to an aseptic filtration was added into each of the vessels in the other group. Then, 2×10^5 nutritious cells of Bacillus subtillis incubated previously were inoculated into the group, and after mixing uniformly, heated at 60° C. for 10 minutes and then cooled rapidly. Both of the groups were preserved at […], and the preservability of them was compared by a sensory evaluation test.

many bacteria = conditions: against many bacteria; 'has been recognized'; cited from earlier work
[1] = test system: Escherichia coli NRIC 1023; assay: Test Example 2 number of living bacteria in noodle soup preserved at 30° C. (FIG. 4)
Protocol: FIG. 4 is a graph showing the number of Escherichia coli NRIC 1023 living in a noodle soup under preservation.
(§1) This will be described in detail later in Test Example 2.
(§2) 40 Grams of a powdery soup stock (produced by Yamaki, Co.) and 200 ml of commercially available soy sauce were added to 1,000 ml of water to prepare a noodle soup. Bacteria were inoculated into the noodle soup, and the noodle soup was preserved at 30° C., and then, the number of living bacteria was counted. FIG. 3 is a curve showing the number of living Bacillus subtillis IAM 1249 (which will be simply referred to as B. subtillis hereinafter), and FIG. 4 is a curve showing the number of living Escherichia coli NRIC 1023 (which will be simply referred to as E. coli hereinafter). In FIGS. 3 and 4, A-1 and A′-1 are curves each indicating the number of living B. subtillis or E. colli inoculated into the unsterilized noodle soup. In the cases of A-1 and A′-1,1,5-D-anhydrofructose was not added, and P and P′ indicate the number of bacteria initially generated.
(§3) A-2 and A′-2 are curves each indicating the number of living B. subtillis or E. colli inoculated into the noodle soup sterilized by heating in hot water at […]. for 10 minutes. In the cases of A-2 and A′-2,1,5-D-anhydrofructose was not added, and the numbers of bacteria initially generated are indicated by Q and Q′, respectively. […]

[2] = test system: Bacillus subtillis IAM 1249; assay: Test Example 2 number of living bacteria in noodle soup preserved at 30° C. (FIG. 3)
Protocol: FIG. 3 is a graph showing the number of Bacillus. subtillis IAM 1249 living in a noodle soup under preservation.
as §1, §2, §3

[3] = test system: Pseudomonas aeruginosa IFO 12680; assay: number of bacteria killed by heating in soybean-casein digest broth medium pH 5.5 (FIG. 1); format: cell-based; conditions: 1% 1,5-D-anhydrofructose, heating at 55° C. for ten minutes, pH 5.5 broth
Source text: FIG. 1 is a curve indicating the number of Pseudomonas aeruginosa IFO 12680 killed by heating.
(§4) FIGS. 1 and 2 show curves each indicating the number of gram-negative bacteria killed in a soybean-casein digest broth medium (pH of 5.5) by heating.

Lactobacillus casei = assay: Test Example 3 swelling of noodle soup sacks preserved at 30° C. (Table 13); conditions: 2% of AF
Protocol: 40 Grams of a powdery soup stock (produced by […], Co.), 200 ml of commercially available soy sauce and 2% of AF were added to 1000 ml of water. The mixture was aseptically filtered and charged in an amount of 100 ml into each of ten polypropylene sacks previously sterilized. Meanwhile, 1 ml of the noodle soup (containing a number of living bacteria of 3.1×10^6/ml) deteriorated due to “swelling” caused by Lactobacillus casei was charged into each of the above-prepared ten sacks, which were then sealed so as air not to be left therein. The ten sacks were divided into two groups each consisting of five sacks. One of the groups was not heated, and the other group was heated in a hot water at 55° C. for 10 minutes. Then, both of them were preserved at 30° C., and the occurrence of “swelling” was observed.

[4] = test system: Bacillus subtillis IAM 1249; assay: Test Example 1 antibacterial power test using turbidimetry (Table 12); format: cell-based; conditions: for OD^660 (turbidity): shake culture 37° C., 72 hours
Protocol: AF was subjected to an antibacterial power test using a turbidimetry. More specifically, a soybean-casein digest broth medium (having a pH value of 5.5) previously sterilized and 1% of AF were placed into a test tube and heated under heating conditions shown in Table 12. Then, 8.7×10^4 CFU of Bacillus subtillis IAM 1249 was inoculated into the test tube, shake culture was carried out at 37° C. for 72 hours, and the turbidity (OD, 660 nm) was then measured.

[5] = test system: Bacillus subtillis IAM 1249; assay: minimum growth-inhibiting concentration (MIC) of AF, influence of heat treatment (Table A); format: cell-based
Source text: (§5) As described in the first process, 1,5-D-anhydrofructose is an antibacterial substance having a high safety, but the present inventors have found to obtain the following advantages when 1,5-D-anhydrofructose is previously subjected to a heat treatment. That is, an antibacterial power of 1,5-D-anhydrofructose can be further increased, and the antibacterial power is developed at a low concentration of 1,5-D-anhydrofructose, as compared with a case where 1,5-D-anhydrofructose is not subjected to the heat treatment. Consequently, a food containing 1,5-D-anhydrofructose is difficult to putrefy and at the same time, the antibacterial spectrum becomes wider.

[6] = test system: Escherichia coli NRIC 1023; assay: as above; format: cell-based
Source text: as §5

[7] = test system: Staphylococcus aureus FDA 209P; assay: as above; format: cell-based
Source text: as §5

[8] = test system: Streptococcus lactis IAM 1249; assay: as above; format: cell-based
Source text: as §5

[9] = test system: Salmonella typhimurium IFO 12529; assay: as above; format: cell-based
Source text: as §5

[10] = test system: Salmonella typhimurium IFO 12529; assay: number of bacteria killed by heating in soybean-casein digest broth medium pH 5.5 (FIG. 2); format: cell-based; conditions: 1% 1,5-D-anhydrofructose, heated at 60° C. for 10 minutes, pH 5.5 broth
Source text: FIG. 2 is a curve indicating the number of which Salmonella typhimurium IFO 12529 killed by heating.
as §4

[11] = noodle soup, heating at 550° C. for 10 minutes after addition of 1,5-D-anhydrofructose vs heating without it

minimum growth-inhibiting concentration (MIC) ([5]; listed as non-heated AF): 3% | minimum growth-inhibiting concentration (MIC) ([6]; listed as non-heated AF): 5% | minimum growth-inhibiting concentration (MIC) ([7]; listed as non-heated AF): 1.5% | minimum growth-inhibiting concentration (MIC) ([8]; listed as non-heated AF): 3% | minimum growth-inhibiting concentration (MIC) ([9]; listed as non-heated AF): 4%
SMILES: O=C1CO[C@H](CO)[C@@H](O)[C@@H]1O [AF, 1,5-D-anhydrofructose]
number of normal vessels / total number of vessels (Bacillus subtillis; Heated at 60° C. for 10 minutes, preservation time 12): 5/5 | number of normal vessels / total number of vessels (Bacillus subtillis; Heated at 60° C. for 10 minutes, preservation time 24): 5/5 | number of normal vessels / total number of vessels (Bacillus subtillis; Heated at 60° C. for 10 minutes, preservation time 36): 5/5 | number of normal vessels / total number of vessels (Bacillus subtillis; Heated at 60° C. for 10 minutes, preservation time 48): 5/5 | number of normal vessels / total number of vessels (Bacillus subtillis; Heated at 60° C. for 10 minutes, preservation time 60): 0/5 | number of normal vessels / total number of vessels (Bacillus subtillis; Not heated, preservation time 12): 5/5 | number of normal vessels / total number of vessels (Bacillus subtillis; Not heated, preservation time 24): 5/5 | number of normal vessels / total number of vessels (Bacillus subtillis; Not heated, preservation time 36): 0/5 | concentration exhibiting proliferation-inhibiting effect (many bacteria): ≤ 1% | proliferation of bacteria during preservation ([1]; noodle soup containing 1,5-D-anhydrofructose, 30° C., B′-2 vs B′-3): suppressed | number of living bacteria initially generated (from Q′ to R′) [1, 11]: reduced by about one figure | proliferation of bacteria during preservation ([2]; noodle soup containing 1,5-D-anhydrofructose, 30° C., B-2 vs B-3): suppressed | number of living bacteria initially generated (from Q to R) [2, 11]: reduced by about one figure | number of bacteria remaining alive relative to the control [3]: one tenth of that in the control | number of normal sacks / total number of sacks (Lactobacillus casei; heated at 55° C. for 10 minutes, 5 preservation days at 30° C.): 5/5 | number of normal sacks / total number of sacks (Lactobacillus casei; heated at 55° C. for 10 minutes, 10 preservation days at 30° C.): 3/5 | number of normal sacks / total number of sacks (Lactobacillus casei; heated at 55° C. for 10 minutes, 15 preservation days at 30° C.): 1/5 | number of normal sacks / total number of sacks (Lactobacillus casei; heated at 55° C. for 10 minutes, 20 preservation days at 30° C.): 0/5 | number of normal sacks / total number of sacks (Lactobacillus casei; not heated, 5 preservation days at 30° C.): 4/5 | number of normal sacks / total number of sacks (Lactobacillus casei; not heated, 10 preservation days at 30° C.): 0/5 | OD^660 (turbidity) ([4]; 1% of AF added and not heated): 0.836 | OD^660 (turbidity) ([4]; 1% of AF, heated at 55° C. for 10 minutes): 0.513 | OD^660 (turbidity) ([4]; 1% of AF, heated at 60° C. for 10 minutes): 0.437 | OD^660 (turbidity) ([4]; 1% of AF, heated at 80° C. for 10 minutes): 0.355 | OD^660 (turbidity) ([4]; 1% of AF, heated at 90° C. for 10 minutes): 0.338 | antibacterial power relative to the control with 1% of AF added and not heated ([4]; heated at 55° C. for 10 minutes after addition of 1% of AF, (1.160-0.513)/(1.160-0.836)): about two times | number of bacteria remaining alive relative to the control [10]: one hundredth or less of that in the control

minimum growth-inhibiting concentration (MIC) [5]: 1% | minimum growth-inhibiting concentration (MIC) [6]: 2% | minimum growth-inhibiting concentration (MIC) [7]: 0.5% | minimum growth-inhibiting concentration (MIC) [8]: 1% | minimum growth-inhibiting concentration (MIC) [9]: 2%
SMILES: O=C1CO[C@H](CO)[C@@H](O)[C@@H]1O [heated AF, 1,5-D-anhydrofructose]
